Data reported in ChEMBL document CHEMBL1201862, “PubChem BioAssay data set” (2004).
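Cells were grown in 96-well plates and exposed to each compound for 48 hours at five concentrations; endpoints were interpolated linearly between bracketing concentrations, or set to the highest concentration if not reached. Here, GI50 denotes the concentration required for 50% inhibition of growth.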 The source made the active and inactive calls. Rule as the data show it: active = GI50 up to about 1.1 µM and inactive = higher.

How the values were obtained:
Experiment in all cases: NCI anticancer screen, dose series, 48 h
[1] = test system: SNB-75
[2] = test system: CCRF-CEM
[3] = test system: LOX IMVI
[4] = test system: SF-539
[5] = test system: T47D
[6] = test system: SK-MEL-5
[7] = test system: Malme-3M
[8] = test system: NCI-H23
[9] = test system: EKVX
[10] = test system: MOLT-4
[11] = test system: M14
[12] = test system: HOP-62
[13] = test system: A549
[14] = test system: UACC-257
[15] = test system: RXF 393
[16] = test system: OVCAR-3
[17] = test system: 786-0
[18] = test system: PC-3
[19] = test system: NCI-H226
[20] = test system: HCC 2998

| Structure (SMILES) | GI50 [1] | GI50 [2] | GI50 [3] | GI50 [4] | GI50 [5] | GI50 [6] | GI50 [7] | GI50 [8] | GI50 [9] | GI50 [10] | GI50 [11] | GI50 [12] | GI50 [13] | GI50 [14] | GI50 [15] | GI50 [16] | GI50 [17] | GI50 [18] | GI50 [19] | GI50 [20] |
| --- | --- | --- | --- | --- | --- | --- | --- | --- | --- | --- | --- | --- | --- | --- | --- | --- | --- | --- | --- | --- |
| CN(CCC(=O)O)S(=O)(=O)c1ccccc1 | 80.2 µM (inactive) | > 100 µM (inactive) | > 100 µM (inactive) | > 100 µM (inactive) | > 100 µM (inactive) | > 100 µM (inactive) | > 100 µM (inactive) | > 100 µM (inactive) | > 100 µM (inactive) | > 100 µM (inactive) | > 100 µM (inactive) | > 100 µM (inactive) | > 100 µM (inactive) | > 100 µM (inactive) | > 100 µM (inactive) | > 100 µM (inactive) | > 100 µM (inactive) | > 100 µM (inactive) | > 100 µM (inactive) |  |
| CCCCN1CSC(=S)N(Cc2ccccc2)C1 | 33.7 µM (inactive) | 4.47 µM (inactive) | 36.9 µM (inactive) | > 100 µM (inactive) | 34.8 µM (inactive) | 23.4 µM (inactive) | 36.8 µM (inactive) | 42.6 µM (inactive) | 30 µM (inactive) | 25.6 µM (inactive) | > 82.8 µM (inactive) | > 100 µM (inactive) | 48 µM (inactive) | 20.9 µM (inactive) | 48 µM (inactive) | 33.7 µM (inactive) | 34.4 µM (inactive) | 63.5 µM (inactive) | > 68.5 µM (inactive) |  |
| CCCCCCCCCCCCCCCCCCNc1ccn(C2OC(COP(=O)(O)OCC3OC(n4cc(F)c(=O)[nH]c4=O)CC3O)C(O)C2O)c(=O)n1 (stereo unspecified) | 1.18 µM (inactive) | 1.24 µM (inactive) | 1.36 µM (inactive) | 0.207 µM (active) | 27.9 µM (inactive) | 23.1 µM (inactive) | 0.634 µM (active) | 1.48 µM (inactive) | 14.5 µM (inactive) | 1.63 µM (inactive) | 3.31 µM (inactive) | 0.356 µM (active) | 0.251 µM (active) | > 89.7 µM (inactive) | 12.6 µM (inactive) | 7.67 µM (inactive) | 2.19 µM (inactive) | 1.53 µM (inactive) |  | < 0.01 µM (active) |
| COc1cc(OCc2ccc3oc(=O)c(-c4ccccc4)nc3c2)cc(OC)c1OC | > 100 µM (inactive) | > 100 µM (inactive) | > 100 µM (inactive) | > 100 µM (inactive) | 38.9 µM (inactive) | > 100 µM (inactive) | > 100 µM (inactive) | > 100 µM (inactive) |  | > 100 µM (inactive) | > 100 µM (inactive) | > 100 µM (inactive) | > 100 µM (inactive) | > 100 µM (inactive) | > 100 µM (inactive) | > 100 µM (inactive) | > 100 µM (inactive) | > 100 µM (inactive) | > 100 µM (inactive) | > 100 µM (inactive) |
| NC1C2C(CC(=O)O)OCC=C3CN4CCC1(C(=O)C(=O)O)C4CC32 (stereo unspecified) | > 100 µM (inactive) | > 100 µM (inactive) | > 100 µM (inactive) | > 100 µM (inactive) | > 100 µM (inactive) | > 100 µM (inactive) | > 100 µM (inactive) | > 100 µM (inactive) | > 100 µM (inactive) | > 100 µM (inactive) | > 100 µM (inactive) | > 100 µM (inactive) | > 100 µM (inactive) | > 100 µM (inactive) | > 100 µM (inactive) | > 100 µM (inactive) | > 100 µM (inactive) | > 100 µM (inactive) | > 100 µM (inactive) |  |
| C=C[C@]1(C)C[C@@H](OC(=O)CO)[C@@]2(C)[C@H](C)CC[C@]3(CCC(=O)[C@H]32)[C@@H](C)[C@@H]1O | > 74 µM (inactive) |  | > 31.6 µM (inactive) | > 100 µM (inactive) | 99.5 µM (inactive) | > 89.5 µM (inactive) | 83.4 µM (inactive) | > 70.1 µM (inactive) | > 100 µM (inactive) | 37.5 µM (inactive) | > 78.9 µM (inactive) | 71.8 µM (inactive) | > 100 µM (inactive) | > 76.6 µM (inactive) | > 59 µM (inactive) | > 60.1 µM (inactive) | > 100 µM (inactive) | > 55.2 µM (inactive) | > 100 µM (inactive) | 72.9 µM (inactive) |
| COCn1c(C)c(C)c2c(=O)oc(=O)[nH]c21 | > 100 µM (inactive) | > 100 µM (inactive) | > 100 µM (inactive) | > 100 µM (inactive) | > 100 µM (inactive) | > 100 µM (inactive) | > 100 µM (inactive) | > 100 µM (inactive) | > 100 µM (inactive) | > 100 µM (inactive) | > 100 µM (inactive) | > 100 µM (inactive) | > 100 µM (inactive) | > 100 µM (inactive) | > 100 µM (inactive) |  | > 100 µM (inactive) | > 100 µM (inactive) | > 100 µM (inactive) | > 100 µM (inactive) |
| CC(=O)CC1=C(OC(C)C)C2(OCCO2)C1O (stereo unspecified) | > 100 µM (inactive) | > 100 µM (inactive) | > 100 µM (inactive) | > 100 µM (inactive) | > 100 µM (inactive) | > 100 µM (inactive) | > 100 µM (inactive) | > 100 µM (inactive) | > 100 µM (inactive) | > 100 µM (inactive) | > 100 µM (inactive) | > 100 µM (inactive) | > 100 µM (inactive) | > 100 µM (inactive) | > 100 µM (inactive) | > 100 µM (inactive) | > 100 µM (inactive) | > 100 µM (inactive) | > 100 µM (inactive) |  |
| S=C(Nc1ccc(Br)cn1)NC12CC3CC(CC(C3)C1)C2 | 13.9 µM (inactive) | 25.4 µM (inactive) |  | 10.1 µM (inactive) | 49.1 µM (inactive) |  | 21.7 µM (inactive) | 15.3 µM (inactive) | 18.5 µM (inactive) | 25.8 µM (inactive) | 46 µM (inactive) | 23.9 µM (inactive) | 16.2 µM (inactive) | 25.1 µM (inactive) | 15.2 µM (inactive) | 46.3 µM (inactive) | 8.05 µM (inactive) | 17 µM (inactive) | 20.5 µM (inactive) | 19.4 µM (inactive) |
| O=C(c1ccco1)C1CC(c2ccc3ccccc3c2O)=NN1c1ccc([N+](=O)[O-])cc1[N+](=O)[O-] (stereo unspecified) | 12.5 µM (inactive) | 2.29 µM (inactive) |  | 28 µM (inactive) | 31.9 µM (inactive) |  | 37 µM (inactive) | 22.7 µM (inactive) |  | 1.71 µM (inactive) | 22.9 µM (inactive) | 33.3 µM (inactive) | 22.3 µM (inactive) | 28.6 µM (inactive) | 29.9 µM (inactive) | 28.1 µM (inactive) | 31 µM (inactive) | 16.4 µM (inactive) | 20.6 µM (inactive) | 27.7 µM (inactive) |
| Brc1ccc2c(c1)-c1nc3nc4c(cc3cc1CC2)CCc1ccc(Br)cc1-4 | > 100 µM (inactive) |  | > 100 µM (inactive) | > 100 µM (inactive) | > 100 µM (inactive) | > 100 µM (inactive) | > 100 µM (inactive) | > 100 µM (inactive) | > 100 µM (inactive) | > 100 µM (inactive) | > 100 µM (inactive) | > 100 µM (inactive) | > 100 µM (inactive) | > 100 µM (inactive) | > 100 µM (inactive) | > 100 µM (inactive) | > 100 µM (inactive) | > 100 µM (inactive) | > 100 µM (inactive) | > 100 µM (inactive) |
| COC(=O)Nc1nc2cc(NS(=O)(=O)c3ccc(Cl)cc3)ccc2[nH]1 | 2.35 µM (inactive) | 4.35 µM (inactive) | 4.44 µM (inactive) | 7.21 µM (inactive) | 19.1 µM (inactive) | 3.99 µM (inactive) | 13.1 µM (inactive) | 9.93 µM (inactive) | 5.78 µM (inactive) | 4.53 µM (inactive) | 3.77 µM (inactive) | 10.7 µM (inactive) | 15.9 µM (inactive) |  | 7.23 µM (inactive) | 3.29 µM (inactive) | 17.7 µM (inactive) | 8.55 µM (inactive) | 10.6 µM (inactive) |  |
| CCOC1CC(=O)c2c(Br)sc(Br)c21 (stereo unspecified) | 19.1 µM (inactive) | 7.31 µM (inactive) | 19.5 µM (inactive) | 26.4 µM (inactive) | 19.9 µM (inactive) | 30.8 µM (inactive) | 23.1 µM (inactive) | 17.9 µM (inactive) | 21.7 µM (inactive) | 14.3 µM (inactive) | 17.1 µM (inactive) | 18.5 µM (inactive) | 29.2 µM (inactive) | 16.9 µM (inactive) | 18.5 µM (inactive) | 14.6 µM (inactive) | 30.7 µM (inactive) | 20.8 µM (inactive) |  | 21.9 µM (inactive) |
| COc1ccc(CC2CCc3nc(N)nc(N)c3C2)cc1OC (stereo unspecified) | 1.46 µM (inactive) |  | 0.065 µM (active) | 2.25 µM (inactive) | 18.9 µM (inactive) | 0.4 µM (active) | 0.83 µM (active) | 0.564 µM (active) | 2.01 µM (inactive) | 0.522 µM (active) | 0.851 µM (active) | 13.7 µM (inactive) | 0.0481 µM (active) | 15.3 µM (inactive) | 0.0292 µM (active) | 5.47 µM (inactive) | 0.0551 µM (active) | 0.0716 µM (active) | 12.1 µM (inactive) | 0.687 µM (active) |
| CCN(CCCl)CCCCNc1c2ccccc2nc2ccc(OC)cc12 | 0.472 µM (active) | < 0.037 µM (active) | 0.149 µM (active) | 0.653 µM (active) | 0.191 µM (active) | 0.373 µM (active) | 0.957 µM (active) | 0.276 µM (active) | 0.723 µM (active) | < 0.01 µM (active) | 1.12 µM (inactive) | 0.439 µM (active) | 0.177 µM (active) | 2.67 µM (inactive) | 0.238 µM (active) | 1.15 µM (inactive) | 0.157 µM (active) | 0.216 µM (active) | 0.102 µM (active) |  |
